Test results published in PMC4858680, “A platinum-based hybrid drug design approach to circumvent acquired resistance to molecular targeted tyrosine kinase inhibitors” (Scientific Reports, 2016).

Columns and labels:
[1] = target: MET (Homo sapiens, UniProt P08581); experiment: biochemical; conditions: read-out: Percent control
[2] = target: ROS1 (Homo sapiens, UniProt P08922); experiment: biochemical; conditions: read-out: Percent control
[3] = target: MET(Y1235D) (Homo sapiens, UniProt P08581, Y1235D); experiment: biochemical; conditions: read-out: Percent control
[4] = target: KIT(V559D) (Homo sapiens, UniProt P10721, V559D); experiment: biochemical; conditions: read-out: Percent control
[5] = system: H1975; experiment: Anticancer activity (cytotoxicity) in NSCLC cell line; assay type: cell-based; conditions: Homo sapiens, NCI-H1975, read-out: Anticancer activity (IC50) H1975
[6] = target: TRKC (Homo sapiens, UniProt Q16288); experiment: biochemical; conditions: read-out: Percent control
[7] = target: FGFR2 (Homo sapiens, UniProt P21802); experiment: biochemical; conditions: read-out: Percent control
[8] = target: T1, EPHA6 (Homo sapiens, UniProt Q9UF33); experiment: biochemical; conditions: read-out: Percent control
T1 sequence (Q9UF33 23-1036): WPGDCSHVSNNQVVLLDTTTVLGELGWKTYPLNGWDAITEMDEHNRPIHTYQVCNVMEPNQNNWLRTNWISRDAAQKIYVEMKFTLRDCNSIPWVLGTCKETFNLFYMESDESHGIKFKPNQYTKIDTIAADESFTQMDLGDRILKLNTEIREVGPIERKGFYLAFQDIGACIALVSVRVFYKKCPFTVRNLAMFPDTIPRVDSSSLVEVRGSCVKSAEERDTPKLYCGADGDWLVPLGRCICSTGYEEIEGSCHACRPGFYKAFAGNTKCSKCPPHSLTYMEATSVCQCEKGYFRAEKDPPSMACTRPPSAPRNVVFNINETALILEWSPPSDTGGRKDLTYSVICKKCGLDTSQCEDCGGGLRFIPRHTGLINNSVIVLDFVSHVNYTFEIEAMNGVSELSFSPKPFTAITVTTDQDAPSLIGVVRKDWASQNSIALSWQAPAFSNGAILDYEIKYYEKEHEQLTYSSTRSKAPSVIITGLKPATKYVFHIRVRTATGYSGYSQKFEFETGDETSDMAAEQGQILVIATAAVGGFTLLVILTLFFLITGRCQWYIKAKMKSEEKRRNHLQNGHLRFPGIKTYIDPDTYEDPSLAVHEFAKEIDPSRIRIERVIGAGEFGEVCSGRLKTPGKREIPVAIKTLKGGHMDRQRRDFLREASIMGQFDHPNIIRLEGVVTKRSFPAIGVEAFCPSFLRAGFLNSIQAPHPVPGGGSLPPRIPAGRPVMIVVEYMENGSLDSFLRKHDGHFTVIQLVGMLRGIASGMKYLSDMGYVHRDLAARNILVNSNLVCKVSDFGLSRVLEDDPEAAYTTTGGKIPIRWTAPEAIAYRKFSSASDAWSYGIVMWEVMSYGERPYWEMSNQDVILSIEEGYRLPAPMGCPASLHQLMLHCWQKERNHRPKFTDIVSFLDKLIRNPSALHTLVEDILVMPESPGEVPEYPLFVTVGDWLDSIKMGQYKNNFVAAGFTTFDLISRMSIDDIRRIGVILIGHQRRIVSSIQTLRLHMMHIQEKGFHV

[9] = target: T2, SYK (Homo sapiens, UniProt P43405); experiment: biochemical; conditions: read-out: Percent control
[10] = target: LTK (Homo sapiens, UniProt P29376); experiment: biochemical; conditions: read-out: Percent control
[11] = target: T3, EPHB6 (Homo sapiens, UniProt O15197); experiment: biochemical; conditions: read-out: Percent control
T3 sequence (O15197 32-1021): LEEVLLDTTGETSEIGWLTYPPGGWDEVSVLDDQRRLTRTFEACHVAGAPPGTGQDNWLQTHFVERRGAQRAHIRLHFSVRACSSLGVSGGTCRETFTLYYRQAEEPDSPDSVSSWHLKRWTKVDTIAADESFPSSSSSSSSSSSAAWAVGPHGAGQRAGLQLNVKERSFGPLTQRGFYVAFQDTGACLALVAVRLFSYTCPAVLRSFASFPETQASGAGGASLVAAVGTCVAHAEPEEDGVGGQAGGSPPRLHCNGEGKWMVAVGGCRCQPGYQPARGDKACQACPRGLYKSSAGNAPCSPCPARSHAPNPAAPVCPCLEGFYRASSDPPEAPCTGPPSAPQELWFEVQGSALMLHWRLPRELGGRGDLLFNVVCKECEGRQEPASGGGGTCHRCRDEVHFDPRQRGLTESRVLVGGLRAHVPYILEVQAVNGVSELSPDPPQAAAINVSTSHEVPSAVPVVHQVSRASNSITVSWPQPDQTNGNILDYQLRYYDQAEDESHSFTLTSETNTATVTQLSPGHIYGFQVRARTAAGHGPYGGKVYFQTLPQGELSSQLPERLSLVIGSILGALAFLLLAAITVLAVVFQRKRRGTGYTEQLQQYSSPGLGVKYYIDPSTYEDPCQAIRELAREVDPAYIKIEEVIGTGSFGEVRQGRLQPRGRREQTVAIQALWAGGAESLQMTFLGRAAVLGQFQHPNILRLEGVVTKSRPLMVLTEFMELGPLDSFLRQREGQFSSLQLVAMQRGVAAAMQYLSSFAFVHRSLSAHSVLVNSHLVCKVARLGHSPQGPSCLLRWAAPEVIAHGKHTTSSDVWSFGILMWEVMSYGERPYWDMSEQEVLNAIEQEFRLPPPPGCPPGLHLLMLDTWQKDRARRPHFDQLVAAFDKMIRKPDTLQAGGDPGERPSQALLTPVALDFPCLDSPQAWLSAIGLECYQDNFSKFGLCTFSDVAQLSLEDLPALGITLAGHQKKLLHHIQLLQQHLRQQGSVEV

[12] = target: KIT (Homo sapiens, UniProt P10721); experiment: biochemical; conditions: read-out: Percent control
[13] = Chemical stability of the hybrid compounds; conditions: saline, phosphate buffered solution (pH 4 and 7.4), culture medium with 5 mM glutathione
[14] = target: PDGFRB (Homo sapiens, UniProt P09619); conditions: 10 μM
[15] = target: T2, SYK; conditions: 10 μM
[16] = target: SRC (Homo sapiens, UniProt P12931); conditions: 10 μM
Chain of SRC (P12931 whole entry): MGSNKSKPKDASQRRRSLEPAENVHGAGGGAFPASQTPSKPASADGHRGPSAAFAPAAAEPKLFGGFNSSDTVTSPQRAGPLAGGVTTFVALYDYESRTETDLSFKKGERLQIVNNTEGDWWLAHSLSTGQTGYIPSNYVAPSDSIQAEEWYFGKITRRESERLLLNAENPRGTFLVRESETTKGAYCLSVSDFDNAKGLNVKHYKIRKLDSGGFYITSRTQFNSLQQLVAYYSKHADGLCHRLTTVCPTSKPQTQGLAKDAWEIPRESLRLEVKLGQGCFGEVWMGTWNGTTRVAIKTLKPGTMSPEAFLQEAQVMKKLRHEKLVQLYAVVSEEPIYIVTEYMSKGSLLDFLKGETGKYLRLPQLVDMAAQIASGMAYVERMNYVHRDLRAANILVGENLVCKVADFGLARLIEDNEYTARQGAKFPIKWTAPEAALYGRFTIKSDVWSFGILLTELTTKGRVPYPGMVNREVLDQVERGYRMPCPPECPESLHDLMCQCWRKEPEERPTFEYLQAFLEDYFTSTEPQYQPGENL

Chain of LTK (P29376 17-864): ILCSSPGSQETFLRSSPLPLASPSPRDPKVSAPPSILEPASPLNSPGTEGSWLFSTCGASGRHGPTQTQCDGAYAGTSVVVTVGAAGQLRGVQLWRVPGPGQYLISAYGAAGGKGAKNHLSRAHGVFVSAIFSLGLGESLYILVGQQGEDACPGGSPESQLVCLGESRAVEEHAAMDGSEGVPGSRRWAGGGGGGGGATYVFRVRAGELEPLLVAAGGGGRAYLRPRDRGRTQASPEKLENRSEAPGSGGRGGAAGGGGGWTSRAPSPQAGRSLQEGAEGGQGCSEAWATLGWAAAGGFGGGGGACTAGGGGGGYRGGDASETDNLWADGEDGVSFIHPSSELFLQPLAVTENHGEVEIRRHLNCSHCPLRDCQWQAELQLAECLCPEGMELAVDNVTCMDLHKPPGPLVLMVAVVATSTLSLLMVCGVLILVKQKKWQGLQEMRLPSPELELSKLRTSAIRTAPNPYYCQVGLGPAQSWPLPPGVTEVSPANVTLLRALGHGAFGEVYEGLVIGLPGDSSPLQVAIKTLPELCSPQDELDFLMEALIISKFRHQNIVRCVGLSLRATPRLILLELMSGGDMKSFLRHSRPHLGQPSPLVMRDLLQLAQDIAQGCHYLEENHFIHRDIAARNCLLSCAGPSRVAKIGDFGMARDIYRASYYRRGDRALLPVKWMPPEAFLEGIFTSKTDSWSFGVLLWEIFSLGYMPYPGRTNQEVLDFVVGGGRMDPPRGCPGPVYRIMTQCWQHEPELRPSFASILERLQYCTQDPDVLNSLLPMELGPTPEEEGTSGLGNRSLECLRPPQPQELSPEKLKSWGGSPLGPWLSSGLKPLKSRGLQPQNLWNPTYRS
Chain of TRKC (Q16288 32-839): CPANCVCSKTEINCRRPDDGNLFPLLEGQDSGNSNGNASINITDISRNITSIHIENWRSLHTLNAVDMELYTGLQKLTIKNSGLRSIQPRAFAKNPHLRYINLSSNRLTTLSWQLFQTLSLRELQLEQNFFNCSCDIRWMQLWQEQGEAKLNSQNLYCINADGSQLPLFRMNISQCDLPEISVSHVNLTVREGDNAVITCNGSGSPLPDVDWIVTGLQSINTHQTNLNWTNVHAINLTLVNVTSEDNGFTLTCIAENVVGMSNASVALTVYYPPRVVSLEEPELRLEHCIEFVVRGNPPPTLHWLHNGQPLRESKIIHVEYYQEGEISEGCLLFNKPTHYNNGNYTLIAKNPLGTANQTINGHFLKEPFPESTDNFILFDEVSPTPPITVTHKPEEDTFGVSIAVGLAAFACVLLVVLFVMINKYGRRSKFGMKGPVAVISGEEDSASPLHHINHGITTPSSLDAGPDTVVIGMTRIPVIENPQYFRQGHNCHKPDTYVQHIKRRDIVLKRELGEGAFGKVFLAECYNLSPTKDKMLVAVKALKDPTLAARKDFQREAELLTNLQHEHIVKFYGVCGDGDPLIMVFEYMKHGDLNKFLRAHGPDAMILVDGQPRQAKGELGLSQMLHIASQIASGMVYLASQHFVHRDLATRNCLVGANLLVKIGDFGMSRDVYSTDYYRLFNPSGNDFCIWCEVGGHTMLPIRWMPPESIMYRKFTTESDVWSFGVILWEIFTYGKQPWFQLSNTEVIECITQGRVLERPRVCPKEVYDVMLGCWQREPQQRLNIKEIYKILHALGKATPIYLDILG
Chain of MET(Y1235D) (P08581 25-1390 Y1235D): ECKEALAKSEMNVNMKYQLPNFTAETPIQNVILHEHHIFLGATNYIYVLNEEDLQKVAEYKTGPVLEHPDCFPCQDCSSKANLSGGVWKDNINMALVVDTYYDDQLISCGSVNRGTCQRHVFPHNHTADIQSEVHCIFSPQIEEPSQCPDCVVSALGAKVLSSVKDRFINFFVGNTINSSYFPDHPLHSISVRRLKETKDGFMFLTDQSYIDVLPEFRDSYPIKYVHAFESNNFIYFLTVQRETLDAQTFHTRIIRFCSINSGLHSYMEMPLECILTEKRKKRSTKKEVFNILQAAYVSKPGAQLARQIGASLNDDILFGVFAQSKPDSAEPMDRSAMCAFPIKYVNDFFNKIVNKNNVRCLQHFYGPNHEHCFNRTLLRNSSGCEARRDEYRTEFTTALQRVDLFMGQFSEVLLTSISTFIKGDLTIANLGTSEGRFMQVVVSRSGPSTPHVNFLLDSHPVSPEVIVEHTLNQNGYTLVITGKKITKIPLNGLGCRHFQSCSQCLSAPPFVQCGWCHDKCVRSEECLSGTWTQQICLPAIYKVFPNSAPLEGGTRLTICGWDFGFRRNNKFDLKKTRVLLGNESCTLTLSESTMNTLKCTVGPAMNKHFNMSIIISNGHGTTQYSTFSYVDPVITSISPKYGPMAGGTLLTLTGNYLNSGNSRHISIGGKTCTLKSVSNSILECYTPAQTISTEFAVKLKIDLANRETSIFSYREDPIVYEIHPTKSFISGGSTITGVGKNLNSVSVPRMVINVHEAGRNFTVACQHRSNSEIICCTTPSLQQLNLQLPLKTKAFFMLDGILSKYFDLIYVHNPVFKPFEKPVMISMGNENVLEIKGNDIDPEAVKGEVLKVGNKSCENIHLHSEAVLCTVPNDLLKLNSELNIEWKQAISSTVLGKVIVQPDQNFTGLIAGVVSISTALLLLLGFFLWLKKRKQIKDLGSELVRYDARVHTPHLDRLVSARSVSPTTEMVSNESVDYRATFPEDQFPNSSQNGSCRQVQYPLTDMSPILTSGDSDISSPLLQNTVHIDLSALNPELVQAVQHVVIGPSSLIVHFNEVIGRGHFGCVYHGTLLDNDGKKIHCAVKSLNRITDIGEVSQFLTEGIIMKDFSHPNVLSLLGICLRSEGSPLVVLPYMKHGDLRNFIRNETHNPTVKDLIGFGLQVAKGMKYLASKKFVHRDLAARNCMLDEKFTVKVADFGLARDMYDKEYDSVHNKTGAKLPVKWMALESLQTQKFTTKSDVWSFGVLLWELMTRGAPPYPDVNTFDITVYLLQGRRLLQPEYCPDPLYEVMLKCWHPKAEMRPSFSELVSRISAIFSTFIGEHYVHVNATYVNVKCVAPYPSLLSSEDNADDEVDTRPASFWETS
Chain of PDGFRB (P09619 33-1106): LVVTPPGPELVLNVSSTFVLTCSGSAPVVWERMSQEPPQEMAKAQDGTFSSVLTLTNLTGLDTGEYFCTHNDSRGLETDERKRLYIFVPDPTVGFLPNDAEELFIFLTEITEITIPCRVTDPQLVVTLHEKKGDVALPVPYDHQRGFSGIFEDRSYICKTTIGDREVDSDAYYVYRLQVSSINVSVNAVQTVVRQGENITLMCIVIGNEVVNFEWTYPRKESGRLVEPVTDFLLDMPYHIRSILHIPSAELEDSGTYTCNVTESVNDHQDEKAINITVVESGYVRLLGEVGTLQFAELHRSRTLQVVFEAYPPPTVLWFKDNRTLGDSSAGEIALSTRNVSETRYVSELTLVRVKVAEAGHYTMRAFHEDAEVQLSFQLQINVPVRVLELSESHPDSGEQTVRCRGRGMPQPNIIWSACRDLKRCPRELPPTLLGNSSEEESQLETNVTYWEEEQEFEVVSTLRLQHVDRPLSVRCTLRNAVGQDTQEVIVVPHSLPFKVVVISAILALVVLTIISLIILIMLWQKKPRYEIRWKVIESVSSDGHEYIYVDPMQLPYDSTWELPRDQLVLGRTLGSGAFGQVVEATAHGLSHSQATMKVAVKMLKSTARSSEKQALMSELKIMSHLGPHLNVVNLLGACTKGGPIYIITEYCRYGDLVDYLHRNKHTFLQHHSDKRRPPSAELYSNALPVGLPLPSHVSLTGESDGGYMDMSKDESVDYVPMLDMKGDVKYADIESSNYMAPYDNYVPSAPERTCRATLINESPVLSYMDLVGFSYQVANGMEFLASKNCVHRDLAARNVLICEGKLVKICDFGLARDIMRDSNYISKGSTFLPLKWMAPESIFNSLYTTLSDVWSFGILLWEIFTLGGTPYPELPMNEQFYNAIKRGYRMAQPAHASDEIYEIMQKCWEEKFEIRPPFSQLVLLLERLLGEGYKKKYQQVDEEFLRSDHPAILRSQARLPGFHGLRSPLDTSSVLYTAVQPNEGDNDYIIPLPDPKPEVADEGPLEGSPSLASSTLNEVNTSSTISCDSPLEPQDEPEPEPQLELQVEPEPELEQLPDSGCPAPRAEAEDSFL

Structure (SMILES) | remaining activity at 10 µM [1] [%] | remaining activity at 10 µM [2] [%] | remaining activity at 10 µM [3] [%] | remaining activity at 10 µM [4] [%] | IC50 [5] [µM] | remaining activity at 10 µM [6] [%] | remaining activity at 10 µM [7] [%] | remaining activity at 10 µM [8] [%] | remaining activity at 10 µM [9] [%] | remaining activity at 10 µM [10] [%] | remaining activity at 10 µM [11] [%] | remaining activity at 10 µM [12] [%] | chemical stability in all conditions tested [13] | Percent control [14] [%] | Percent control [15] [%] | Percent control [16] [%]
C#Cc1cccc(Nc2ncnc3cc(OCCOC)c(OCCOC)cc23)c1 [Erlotinib] | 27.5 | 100 | 9.9 | 23.7 | 11.8 ± 3.19 | 100 | 100 | 4.2 | 100 | 8.2 | 14.5 | 14.5 | – | – | – | –
Cc1ccc(NC(=O)c2ccc(CN3CCN(C)CC3)cc2)cc1Nc1nccc(-c2cccnc2)[n+]1[Pt-2]1([Cl])[NH2+]C2CCCCC2[NH2+]1 (centres unmarked) [1b, oxaliplatin-imatinib] | – | – | – | – | – | – | – | – | – | – | – | – | stable | 0.1 | – | –
COc1cc2c(Nc3ccc(Br)cc3F)ncnc2cc1OCC1CCN(C)CC1 [Vandetanib, reference compound] | – | 100 | – | – | 13.8 ± 2.06 | 100 | 9.9 | 0.5 | 100 | 5.2 | 0.8 | – | – | – | – | –
COc1cc2c(Nc3ccc(Br)cc3F)[n+]([Pt-2]3([Cl])[NH2+]C4CCCCC4[NH2+]3)cnc2cc1OCC1CCN(C)CC1 (centres unmarked) [3b, oxaliplatin-vandetanib] | – | – | – | – | – | – | – | – | – | – | – | – | – | – | 85 | 0.5
C#Cc1cccc(Nc2c3cc(OCCOC)c(OCCOC)cc3nc[n+]2[Pt@SP2-2]([NH3+])([NH3+])[Cl])c1 [2a, cisplatin-erlotinib] | – | – | – | – | – | – | – | – | – | – | – | – | stable | 85 | 88 | 66
Cc1ccc(NC(=O)c2ccc(CN3CCN(C)CC3)cc2)cc1Nc1nccc(-c2cccnc2)n1 [Imatinib, reference compound] | 100 | – | 100 | 0.1 | – | – | – | – | – | – | – | 0.1 | – | – | – | –
